Test results reported in patent US20230212170A1, “INHIBITORS OF KRAS G12C PROTEIN AND USES THEREOF” (SHANGHAI ANTENGENE CORPORATION LIMITED, priority 2020, published 2023).
Read-outs that look alike come from different tables or passages of the source.

Experiments:
KRAS G12C [1] = biological target: T1, KRAS G12C (Homo sapiens, UniProt P01116, G12C); assay: KRAS GDP FI assay; type: biochemical; settings: kinetic reading Ex580/Em620 for 120 min
Excerpt: Assay 2: KRAS GDP FI Assay
1. Prepare compound dilution plate.
2. Transfer Inhibitor/DMSO to assay plate by Echo.
3. Prepare 1× assay buffer.
4. Prepare KRAS G12C mix & SOS1 mix & GTP mix & detection reagent mix.
5. Add KRAS G12C mix, SOS1 mix, GTP mix.
6. Add detection reagent mix to assay plate.
Target sequence in this assay (P01116 1-188 isoform P01116-2 G12C): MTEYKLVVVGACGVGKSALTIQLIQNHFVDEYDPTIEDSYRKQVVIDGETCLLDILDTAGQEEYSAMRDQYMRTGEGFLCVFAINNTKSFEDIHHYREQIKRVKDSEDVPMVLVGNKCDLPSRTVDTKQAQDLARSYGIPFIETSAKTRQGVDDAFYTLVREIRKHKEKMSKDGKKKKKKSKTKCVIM

[2] = Pharmacokinetics study in plasma of ICR mice, intravenous or oral administration; type: in vivo; settings: male ICR mice
Procedure: The purpose of this study is to determine the pharmacokinetics parameters in plasma of compounds in ICR mice following intravenous or oral administration.
The formulations were based on sponsor's recommendation and will be prepared by the Testing Facility.
Species and Strain: ICR Mice (Male)
Source: Sino-British SIPPR Lab Animal Ltd, Shanghai
Number of Animals: Ordered: 8; Needed: 6
The test article was be administered via a single IV or PO dosing.
IV group: Post-dose at 5 min, 15 min, 30 min, 1 h, 2 h, 4 h, 8 h and 24 h.
PO group: Post-dose at 15 min, 30 min, 1 h, 2 h, 4 h, 6 h, 8 h and 24 h.
30˜40 μL/sample. Samples were be placed in tubes containing heparin sodium and stored on ice until centrifuged.
The PK blood samples were centrifuged at approximately 6800G for 6 minutes at 2-8° C. and the resulting plasma was transferred to appropriately labeled tubes within 2 hour of blood collection/centrifugation and stored frozen at approximately −70° C.
Method development and biological samples analysis for the test articles (Sodium heparin anticoagulant) were be performed by Testing Facility by means of LC-MS/MS. The analytical results were be confirmed using quality control samples for intra-assay variation. The accuracy of >66.7% of the quality control samples were be between 80-120% of the known value(s).
Pharmacokinetics Analysis
Standard set of parameters including Area Under the Curve (AUC(0-t) and AUC(0-∞)), elimination half-live (T1/2), maximum plasma concentration (Cmax) and time to reach maximum plasma concentration (Tmax) and other parameters were be calculated using Phoenix WinNonlin 7.0 (Pharsight, USA) by the Study Director.

MIA PaCa-2 = assay: Tumor cell anti-proliferation assay (CTG assay), MIA PaCa-2; type: cell-based; settings: MIA PaCa-2, 3-days incubation, CTG, read-out: IC50 MIA PaCa-2
Procedure: (§1) Assay 3: Tumor Cell Anti-Proliferation Assay (CTG Assay)
(§2) Tested tumor cell lines (MIA PaCa-2, NCI-H358, and A549) were seeded to the 96-well plate for overnight, then cells were treated with the test compound at 9 serially diluted concentrations in triplicate. After 3-days incubation with the test compound, the CTG assay was performed to evaluate the IC50. The 3 cell lines were tested in the same manner. Cisplatin were used as the positive control.
(§3) Day −1: Cell Plating for Cell Lines
(§4) 1. Adjust the cell concentration to the appropriated number with the medium, and for each well of a 96-well plate, add 90 μl cell suspensions (Cell concentration will be adjusted according to the data base or density optimization assay). 2. Incubate the plates for overnight in humidified incubator at […] with 5% CO2.
(§5) Day 0: T0 Plate Reading and Compound Treatment
(§6) 3. Add 10 μL culture medium to each well of plate A for T0 reading.
(§7) 4. Equilibrate the plate and its content at RT for approximately 30 min.
(§8) 5. Add 50 μL CellTiter-Glo® Reagent to each well for T0 reading.
(§9) 6. Mix contents for 2 minutes on an orbital shaker to facilitate cell lysis.
(§10) 7. Allow the plate to incubate at room temperature for 10 minutes to stabilize the luminescent signal. Note: Uneven luminescent signal within standard plates can be caused by temperature gradients, uneven seeding of cells or edge effects in multiwall plates.
(§11) 8. Place a black BackSeal sticker to the bottom of each plate.
(§12) 9. Record luminescence using an Envision Multi Label Reader.
(§13) 10. Dilute the test compound and the positive control (Cisplatin). Add 10 μL of 10× test compound working solutions into the corresponding wells. Incubate the test plates in the humidified incubator at 37° C. with 5% Co2.
(§14) Day 3: Plate Reading for 3-Day Assay
(§15) 11. Monitor under the microscope to make sure that the cells in control wells are healthy.
(§16) 12. After three days incubation, add 50 μL CellTiter-Glo® Reagent to each well.
(§17) 13. Mix contents for 2 minutes on an orbital shaker to facilitate cell lysis.
(§18) 14. Allow the plate to incubate at room temperature for 10 minutes to stabilize the luminescent signal.
(§19) 15. Note: Uneven luminescent signal within standard plates can be caused by temperature gradients, uneven seeding of cells or edge effects in multiwall plates.
(§20) 16. Place a black BackSeal sticker to the bottom of each plate.
(§21) 17. Record luminescence using an Envision Multi Label Reader.
(§22) In order to calculate IC50, a dose-response curve was fitted using nonlinear regression model with a sigmoidal dose response. The formula of the surviving rate is shown below, and the IC50 was automatically produced by GraphPad Prism 5.0.
(§23) The surviving rate […]=(LumTest compound−LumMedium control)/(LumNone treated-LumMedium control)×100%.
(§24) LumNone treated-LumMedium control is set as 100% o and LumMedium control is set as […]. T0 value will be presented as percentage of LumNone treated.

NCI-H358 = assay: Tumor cell anti-proliferation assay (CTG assay), NCI-H358; type: cell-based; settings: NCI-H358, 3-days incubation, CTG, read-out: IC50 NCI-H358
Procedure: as §1, §2, §3, §4, §5, §6, §7, §8, §9, §10, §11, §12, §13, §14, §15, §16, §17, §18, §19, §20, §21, §22, §23, §24

A549 = assay: Tumor cell anti-proliferation assay (CTG assay), A549; type: cell-based; settings: A549, 3-days incubation
Procedure: as §1, §2, §3, §4, §5, §6, §7, §8, §9, §10, §11, §12, §13, §14, §15, §16, §17, §18, §19, §20, §21, §22, §23, §24

KRAS G12C [3] = biological target: T1, KRAS G12C; assay: KRAS G12C nucleotide exchange assay (SOS1-mediated, mant-GDP fluorescence); type: biochemical; set-up: KRas(1-169) G12C protein; settings: 15 min pre-incubation
Procedure: Assay 1: KRAS G12C Nucleotide Exchange Assay
1×Loading buffer: 20 mM HEPES, pH 7.5, 50 mM NaCl, 0.5 mM MgCl2, 1 mM DTT, 5 mM EDTA
1×Equilibration buffer: 20 mM HEPES, pH 7.5, 150 mM NaCl, 1 mM MgCl2, 1 mM DTT
1×Assay buffer: 20 mM HEPES, pH 7.5, 150 mM NaCl, 1 mM MgCl2, 0.01% Tween-20, 1 mM DTT
2. Load Mant GDP to KRAS G12C:
a. A mixed solution of 100 µL mant GDP and KRAS G12C was prepared with 1×loading buffer: 60 um KRAS G12C, 600 um […], incubated at room temperature for 60 minutes, and the reaction was carried out in dark conditions.
b. Add 1 uL 1 m MgCl2 (final concentration 10 mm) to stop the reaction, mix the solution upside down in the centrifuge tube, centrifugate for 3-5 seconds, and incubate at room temperature for 30 minutes.
c. At the same time of incubation for 30 minutes, balance nap-5 column with 10 ml ix equipment buffer until no liquid drops.
d. Drop the mixed solution of 100 uL mant GDP and KRAS G12C into the center of nap-5 column. After the sample completely enters nap-5 column, add 400 µL 1× equipment buffer until no liquid drops.
e. Add 500 ul 1× equipment buffer for elution and collect eluant.
f. Determination of KRAS G12C mant GDP with Bradford protein quantitative Kit.
3. Nucleotide Exchange Experiment:
a. Transfer 50 NL DMSO/compound to 384 well plate with echo550.
b. 10 uL enzyme mix was added into 384 pore plate and incubated with DMSO/compound for 15 min.
c. Initial reaction with 10 µL Sos1/GTP mix.
d. Immediately after reaction, read ex360/em440 fluorescence value in kinetic mode with Nivo.
a. Use Graphpad software to process data and draw pictures.
b. K value is obtained in Graphpad software by fitting One phase experimental deck model.
c. Z′=1-3*(SdKmax+SdKmin)/(AveKmax−AveKmin)
d. In % is calculated by the following formula:
Inh%=(Kmax−Ksample)/(Kmax−Kmin)*100
Target sequence in this assay (P01116 1-169 isoform P01116-2 G12C): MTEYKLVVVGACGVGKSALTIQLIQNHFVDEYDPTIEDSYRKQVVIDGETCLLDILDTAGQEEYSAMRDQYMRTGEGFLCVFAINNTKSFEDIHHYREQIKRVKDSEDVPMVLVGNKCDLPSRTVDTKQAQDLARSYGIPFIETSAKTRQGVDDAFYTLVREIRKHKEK

[4] = mouse, 1 mg/kg, IV, 1 mpk, plasma
[5] = mouse, 10 mg/kg, PO, 10 mpk, fasted, plasma

Compound	IC50 (MIA PaCa-2; Homo sapiens, MIA PaCa-2, 72 h) [nM]	IC50 (NCI-H358) [nM]	IC50 (A549; Homo sapiens, 72 h) [nM]	IC50 (KRAS G12C [3]) [nM]	IC50 (MIA PaCa-2) [nM]	IC50 (A549) [nM]	IC50 (NCI-H358; Homo sapiens, NCI-H358, 72 h) [nM]	further results
C=CC(=O)N1C[C@H](C)N(c2nc(OC[C@@H]3CCCN3C)nc3c(=O)n(-c4cccc5cccc(Cl)c45)c(C(F)(F)F)nc23)[C@@H](C)C1 (single isomer, unassigned) [Example 29-b]	906	28.6	> 10000					IC50 (KRAS G12C [1]): 127 nM; F ([2]; PO 10 mpk vs IV 1 mpk): 26.74%; AUC [2, 4]: 0.993 µM·h; C0 [2, 4]: 659 nM; Vd [2, 4]: 2.97 L/kg; clearance [2, 4]: 25.7 mL/min/kg; half-life [2, 4]: 1.59 h; AUC [2, 5]: 2.58 µM·h; Cmax [2, 5]: 729 nM; Tmax [2, 5]: 0.42 h; half-life [2, 5]: 2.39 h
C=CC(=O)N1CCN(c2nc(OC[C@@H]3CCCN3C)nc3c(=O)n(-c4cccc5cccc(Cl)c45)c(C(F)(F)F)nc23)C[C@@H]1CC#N [Example 31, 2-((S)-1-acryloyl-4-(7-(8-chloronaphthalen-1-yl)-2-(((S)-1-methylpyrrolidin-2-yl)methoxy)-8-oxo-6-(trifluoromethyl)-7,8-dihydropyrimido[5,4-d]pyrimidin-4-yl)piperazin-2-yl)acetonitrile]	124		> 10000	446				IC50 (KRAS G12C [1]): 116 nM
N.N.[Cl][Pt][Cl] [Cisplatin, reference compound]		25000			14300	31100		
C=CC(=O)N1CCN(c2nc(OC[C@@H]3CCCN3C)nc3c(=O)n(-c4cccc5cccc(Cl)c45)c(C)nc23)C[C@@H]1CC#N [Compound 4, 2-((S)-1-acryloyl-4-(7-(8-chloronaphthalen-1-yl)-6-methyl-2-(((S)-1-methylpyrrolidin-2-yl)methoxy)-8-oxo-7,8-dihydropyrimido[5,4-d]pyrimidin-4-yl)piperazin-2-yl)acetonitrile]	504		> 5000	560			476	
C=CC(=O)N1C[C@H](C)N(c2nc(OC[C@@H]3CCCN3C)nc3c(=O)n(-c4cccc5cccc(F)c45)c(C(F)(F)F)nc23)[C@@H](C)C1 (single isomer, unassigned) [Example 34-a]	1230	202	> 10000					
C=CC(=O)N1C[C@H](C)N(c2nc(OC[C@@H]3CCCN3C)nc3c(=O)n(-c4cc(OC)cc5ccccc45)c(C(F)(F)F)nc23)[C@@H](C)C1 (single isomer, unassigned) [Example 35-a]		1180	> 10000		2650			
C=CC(=O)N1C[C@H](C)N(c2nc(OC[C@@H]3CCCN3C)nc3c(=O)n(-c4cc(OC)cc5ccccc45)c(C(F)(F)F)nc23)[C@@H](C)C1 (single isomer, unassigned) [Example 35-b]		206			916	> 10000		
C=CC(=O)N1C[C@H](C)N(c2nc(OC[C@@H]3CCCN3C)nc3c(=O)n(-c4cccc5cccc(F)c45)c(C(F)(F)F)nc23)[C@@H](C)C1 (single isomer, unassigned) [Example 34-b]		82			679	> 10000		
C=CC(=O)N1CCN(c2nc(OC[C@@H]3CCCN3C)nc3c(=O)n(-c4cccc5cccc(Cl)c45)c(=O)[nH]c23)C[C@@H]1CC#N [Compound 19, 2-((S)-1-acryloyl-4-(7-(8-chloronaphthalen-1-yl)-2-(((S)-1-methylpyrrolidin-2-yl)methoxy)-6,8-dioxo-5,6,7,8-tetrahydropyrimido[5,4-d]pyrimidin-4-yl)piperazin-2-yl)acetonitrile]	> 5000		> 5000	370			> 5000	
Cc1nc2c(N3CCN[C@@H](CC#N)C3)nc(OC[C@@H]3CCCN3C)nc2c(=O)n1-c1cccc2ccccc12 [Compound 2, 2-((S)-4-(6-methyl-2-(((S)-1-methylpyrrolidin-2-yl)methoxy)-7-(naphthalen-1-yl)-8-oxo-7,8-dihydropyrimido[5,4-d]pyrimidin-4-yl)piperazin-2-yl)acetonitrile]	642		> 5000	690			1340	
